Results on 7 compounds are retold here after ChEMBL document CHEMBL5291721, “A preclinical secondary pharmacology resource illuminates target-adverse drug reaction associations of marketed drugs” (Nat Commun, 2023).

Some targets named below: D(1A) dopamine receptor (Homo sapiens, UniProt P21728); D(3) dopamine receptor (Homo sapiens, UniProt P35462); Histamine H3 receptor (Homo sapiens, UniProt Q9Y5N1); Mu-type opioid receptor (Homo sapiens, UniProt P35372).
The target in another test is Acetylcholinesterase (Homo sapiens, UniProt P22303). The format is functional.
Test [1] addresses T1, Alpha-2A adrenergic receptor (Homo sapiens, UniProt P08913).
T1 sequence (P08913 whole entry): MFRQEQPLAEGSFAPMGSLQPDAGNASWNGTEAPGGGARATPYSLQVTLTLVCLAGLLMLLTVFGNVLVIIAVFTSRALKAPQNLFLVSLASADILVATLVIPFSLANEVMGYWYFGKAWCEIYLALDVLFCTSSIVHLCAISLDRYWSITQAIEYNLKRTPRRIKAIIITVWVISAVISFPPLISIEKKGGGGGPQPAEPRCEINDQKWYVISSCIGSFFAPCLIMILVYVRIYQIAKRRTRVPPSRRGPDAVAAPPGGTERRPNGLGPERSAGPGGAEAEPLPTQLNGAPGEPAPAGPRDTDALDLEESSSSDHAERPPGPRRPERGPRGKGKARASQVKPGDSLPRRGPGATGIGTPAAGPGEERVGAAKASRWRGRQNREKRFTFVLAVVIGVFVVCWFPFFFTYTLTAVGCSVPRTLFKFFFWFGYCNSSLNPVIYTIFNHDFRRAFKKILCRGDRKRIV

In test [2] the target is T2, Muscarinic acetylcholine receptor M2 (Homo sapiens, UniProt P08172).
T2 sequence (P08172 whole entry): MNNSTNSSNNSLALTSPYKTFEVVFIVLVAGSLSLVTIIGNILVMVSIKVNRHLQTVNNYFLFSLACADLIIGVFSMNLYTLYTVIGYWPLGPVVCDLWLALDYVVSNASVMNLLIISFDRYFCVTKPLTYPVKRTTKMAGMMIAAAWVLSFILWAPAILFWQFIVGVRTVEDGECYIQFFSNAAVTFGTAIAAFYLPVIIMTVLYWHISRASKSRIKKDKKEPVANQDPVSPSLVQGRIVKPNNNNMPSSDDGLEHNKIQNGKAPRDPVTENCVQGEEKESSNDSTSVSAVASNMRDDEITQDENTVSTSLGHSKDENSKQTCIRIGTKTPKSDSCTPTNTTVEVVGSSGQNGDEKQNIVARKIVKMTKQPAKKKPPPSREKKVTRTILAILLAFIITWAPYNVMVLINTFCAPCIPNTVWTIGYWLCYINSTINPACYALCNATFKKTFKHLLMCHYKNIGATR

The next test addresses Prothrombin (Homo sapiens, UniProt P00734). The format is functional.
For test [3], the target named is T3, 5-hydroxytryptamine receptor 1A (Homo sapiens, UniProt P08908).
T3 sequence (P08908 whole entry): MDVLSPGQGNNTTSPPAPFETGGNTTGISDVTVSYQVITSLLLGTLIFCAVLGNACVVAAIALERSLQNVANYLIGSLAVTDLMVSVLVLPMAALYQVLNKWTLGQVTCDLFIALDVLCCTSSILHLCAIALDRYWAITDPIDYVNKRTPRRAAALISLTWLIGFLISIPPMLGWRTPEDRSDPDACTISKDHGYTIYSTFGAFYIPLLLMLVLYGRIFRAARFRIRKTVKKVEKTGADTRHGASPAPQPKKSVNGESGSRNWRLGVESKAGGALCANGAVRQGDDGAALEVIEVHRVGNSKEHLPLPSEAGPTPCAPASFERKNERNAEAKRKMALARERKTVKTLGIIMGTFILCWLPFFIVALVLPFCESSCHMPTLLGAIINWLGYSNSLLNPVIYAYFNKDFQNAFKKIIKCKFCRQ

The target of test [4] is 5-hydroxytryptamine receptor 2B (Homo sapiens, UniProt P41595). The format is functional, cell-based.
Test [5] concerns the target Voltage-gated inwardly rectifying potassium channel KCNH2 (Homo sapiens, UniProt Q12809). The format is functional. The settings on record: read-out: AC50.
Test [6] concerns the target cGMP-inhibited 3',5'-cyclic phosphodiesterase 3A (Homo sapiens, UniProt Q14432). The format is functional.
Test [7] has as its target 3',5'-cyclic-AMP phosphodiesterase 4A (Homo sapiens, UniProt P27815). The format is functional.
Test [8] concerns the target T4, Prostaglandin G/H synthase 1 (Homo sapiens, UniProt P23219). The format is functional.
The target in test [9] is T4, Prostaglandin G/H synthase 1. The format is functional. This is another data set of the same source.
Test [10] concerns the target Sodium-dependent noradrenaline transporter (Homo sapiens, UniProt P23975).
Test [11] concerns the target Sodium-dependent dopamine transporter (Homo sapiens, UniProt Q01959).
The target of test [12] is T5, Thromboxane A2 receptor (Homo sapiens, UniProt P21731).
T5 sequence (P21731 whole entry): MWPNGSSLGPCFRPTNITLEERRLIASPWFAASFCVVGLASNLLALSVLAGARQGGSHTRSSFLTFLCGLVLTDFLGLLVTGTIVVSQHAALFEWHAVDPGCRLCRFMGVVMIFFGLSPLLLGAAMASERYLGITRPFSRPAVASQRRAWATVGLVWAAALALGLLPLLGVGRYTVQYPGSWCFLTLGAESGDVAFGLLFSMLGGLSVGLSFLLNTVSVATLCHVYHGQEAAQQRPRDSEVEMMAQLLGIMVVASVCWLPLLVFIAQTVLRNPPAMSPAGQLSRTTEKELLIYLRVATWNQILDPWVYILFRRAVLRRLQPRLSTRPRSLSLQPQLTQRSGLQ
The format is functional, cell-based.

Test [13] concerns the target T5, Thromboxane A2 receptor. The format is functional, cell-based. This is another data set of the same source.
Note: assay procedure not described here.

Chain of Voltage-gated inwardly rectifying potassium channel KCNH2 (Q12809 whole entry): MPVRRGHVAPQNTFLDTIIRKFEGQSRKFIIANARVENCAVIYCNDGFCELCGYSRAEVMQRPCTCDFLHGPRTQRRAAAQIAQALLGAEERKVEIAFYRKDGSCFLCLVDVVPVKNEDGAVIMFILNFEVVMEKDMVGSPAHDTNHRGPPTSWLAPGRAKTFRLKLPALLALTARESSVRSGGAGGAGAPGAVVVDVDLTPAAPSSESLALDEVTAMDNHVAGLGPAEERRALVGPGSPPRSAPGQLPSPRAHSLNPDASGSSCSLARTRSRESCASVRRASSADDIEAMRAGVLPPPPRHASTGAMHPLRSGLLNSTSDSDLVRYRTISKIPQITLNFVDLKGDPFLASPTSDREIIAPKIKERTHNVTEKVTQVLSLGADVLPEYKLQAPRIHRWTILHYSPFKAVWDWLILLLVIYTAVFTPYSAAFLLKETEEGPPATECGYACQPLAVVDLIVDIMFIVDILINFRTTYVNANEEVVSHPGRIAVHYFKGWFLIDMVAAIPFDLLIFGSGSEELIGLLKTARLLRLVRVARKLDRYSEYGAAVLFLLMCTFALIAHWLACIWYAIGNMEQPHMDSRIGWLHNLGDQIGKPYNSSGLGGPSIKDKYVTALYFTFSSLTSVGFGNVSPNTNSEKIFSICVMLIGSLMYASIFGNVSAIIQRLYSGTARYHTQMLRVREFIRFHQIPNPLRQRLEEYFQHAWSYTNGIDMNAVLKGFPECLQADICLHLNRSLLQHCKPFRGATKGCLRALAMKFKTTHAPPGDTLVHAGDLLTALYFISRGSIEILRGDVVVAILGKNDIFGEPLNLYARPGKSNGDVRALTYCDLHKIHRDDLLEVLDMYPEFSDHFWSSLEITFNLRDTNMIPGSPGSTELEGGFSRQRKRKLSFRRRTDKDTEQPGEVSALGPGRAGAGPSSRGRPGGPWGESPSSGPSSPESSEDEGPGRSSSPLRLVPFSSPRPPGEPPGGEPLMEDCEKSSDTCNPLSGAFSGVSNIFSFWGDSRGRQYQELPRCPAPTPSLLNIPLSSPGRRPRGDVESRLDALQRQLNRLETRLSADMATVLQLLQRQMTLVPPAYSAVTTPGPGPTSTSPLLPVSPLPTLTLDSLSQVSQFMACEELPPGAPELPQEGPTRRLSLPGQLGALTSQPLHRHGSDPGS
Chain of cGMP-inhibited 3',5'-cyclic phosphodiesterase 3A (Q14432 whole entry): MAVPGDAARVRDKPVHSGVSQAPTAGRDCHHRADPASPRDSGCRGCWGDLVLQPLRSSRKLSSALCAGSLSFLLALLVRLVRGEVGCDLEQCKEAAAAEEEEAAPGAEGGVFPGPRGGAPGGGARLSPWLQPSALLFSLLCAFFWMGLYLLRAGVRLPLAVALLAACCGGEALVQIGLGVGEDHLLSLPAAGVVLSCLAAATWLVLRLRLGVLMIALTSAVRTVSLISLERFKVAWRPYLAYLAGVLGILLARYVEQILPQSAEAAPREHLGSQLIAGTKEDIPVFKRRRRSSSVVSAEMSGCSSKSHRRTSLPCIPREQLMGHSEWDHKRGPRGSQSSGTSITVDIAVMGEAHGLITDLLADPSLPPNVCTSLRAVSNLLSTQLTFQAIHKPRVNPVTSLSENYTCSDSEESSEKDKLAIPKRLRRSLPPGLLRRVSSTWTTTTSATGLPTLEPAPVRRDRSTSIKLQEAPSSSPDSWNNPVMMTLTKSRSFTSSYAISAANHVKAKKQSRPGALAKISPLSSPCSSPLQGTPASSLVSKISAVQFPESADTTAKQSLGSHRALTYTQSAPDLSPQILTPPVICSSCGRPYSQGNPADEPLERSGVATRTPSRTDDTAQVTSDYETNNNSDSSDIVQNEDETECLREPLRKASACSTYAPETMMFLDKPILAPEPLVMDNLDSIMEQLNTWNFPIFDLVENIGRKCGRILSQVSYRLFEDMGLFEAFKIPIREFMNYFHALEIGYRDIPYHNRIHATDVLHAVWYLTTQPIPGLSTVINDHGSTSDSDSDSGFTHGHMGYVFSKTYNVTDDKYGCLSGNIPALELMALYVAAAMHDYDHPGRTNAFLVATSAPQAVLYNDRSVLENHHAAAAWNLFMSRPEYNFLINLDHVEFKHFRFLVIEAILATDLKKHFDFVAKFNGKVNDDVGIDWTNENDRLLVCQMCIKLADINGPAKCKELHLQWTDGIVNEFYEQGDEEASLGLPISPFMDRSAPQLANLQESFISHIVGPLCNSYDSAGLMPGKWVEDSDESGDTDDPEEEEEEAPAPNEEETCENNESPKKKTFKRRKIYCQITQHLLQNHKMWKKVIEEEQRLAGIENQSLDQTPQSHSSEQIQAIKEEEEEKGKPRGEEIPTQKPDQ
Chain of Mu-type opioid receptor (P35372 whole entry): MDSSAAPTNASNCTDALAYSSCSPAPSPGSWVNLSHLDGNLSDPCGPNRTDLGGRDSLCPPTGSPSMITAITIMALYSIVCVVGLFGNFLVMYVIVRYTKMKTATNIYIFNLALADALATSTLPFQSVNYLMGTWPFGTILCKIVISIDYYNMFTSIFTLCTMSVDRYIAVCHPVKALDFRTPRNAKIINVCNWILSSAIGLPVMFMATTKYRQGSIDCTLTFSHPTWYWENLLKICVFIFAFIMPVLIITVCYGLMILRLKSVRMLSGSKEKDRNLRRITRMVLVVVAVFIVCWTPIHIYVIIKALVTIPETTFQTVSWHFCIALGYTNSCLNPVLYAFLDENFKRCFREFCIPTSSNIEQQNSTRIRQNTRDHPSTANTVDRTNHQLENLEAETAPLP
Chain of Sodium-dependent noradrenaline transporter (P23975 whole entry): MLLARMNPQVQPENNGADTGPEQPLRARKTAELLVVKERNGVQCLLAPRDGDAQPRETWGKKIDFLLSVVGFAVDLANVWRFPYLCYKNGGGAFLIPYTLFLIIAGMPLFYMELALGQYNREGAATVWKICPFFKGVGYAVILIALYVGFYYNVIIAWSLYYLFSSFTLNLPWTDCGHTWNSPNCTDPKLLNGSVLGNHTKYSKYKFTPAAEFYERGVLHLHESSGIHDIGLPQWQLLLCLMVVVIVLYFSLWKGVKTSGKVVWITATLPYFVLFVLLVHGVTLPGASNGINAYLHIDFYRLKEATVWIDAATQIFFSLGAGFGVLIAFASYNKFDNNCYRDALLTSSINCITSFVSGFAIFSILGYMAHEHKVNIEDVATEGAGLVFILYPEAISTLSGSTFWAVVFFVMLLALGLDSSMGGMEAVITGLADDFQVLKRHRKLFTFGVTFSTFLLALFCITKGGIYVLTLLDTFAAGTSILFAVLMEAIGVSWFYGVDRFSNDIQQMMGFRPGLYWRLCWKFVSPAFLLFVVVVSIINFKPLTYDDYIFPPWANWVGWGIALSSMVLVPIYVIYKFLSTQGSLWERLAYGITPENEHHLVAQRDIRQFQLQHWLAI
Chain of D(1A) dopamine receptor (P21728 whole entry): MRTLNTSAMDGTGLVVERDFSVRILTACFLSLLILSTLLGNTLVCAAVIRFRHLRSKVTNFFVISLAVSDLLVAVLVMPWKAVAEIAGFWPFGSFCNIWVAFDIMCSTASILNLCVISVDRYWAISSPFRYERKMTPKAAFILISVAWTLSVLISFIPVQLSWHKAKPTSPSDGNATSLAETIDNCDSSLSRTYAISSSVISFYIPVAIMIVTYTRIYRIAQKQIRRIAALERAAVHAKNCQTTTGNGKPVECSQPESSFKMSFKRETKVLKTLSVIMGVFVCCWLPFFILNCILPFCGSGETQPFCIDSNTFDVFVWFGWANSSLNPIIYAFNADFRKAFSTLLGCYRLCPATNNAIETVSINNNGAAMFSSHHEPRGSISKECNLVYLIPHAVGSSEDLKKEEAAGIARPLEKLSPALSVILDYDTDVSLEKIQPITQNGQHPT
Chain of Acetylcholinesterase (P22303 whole entry): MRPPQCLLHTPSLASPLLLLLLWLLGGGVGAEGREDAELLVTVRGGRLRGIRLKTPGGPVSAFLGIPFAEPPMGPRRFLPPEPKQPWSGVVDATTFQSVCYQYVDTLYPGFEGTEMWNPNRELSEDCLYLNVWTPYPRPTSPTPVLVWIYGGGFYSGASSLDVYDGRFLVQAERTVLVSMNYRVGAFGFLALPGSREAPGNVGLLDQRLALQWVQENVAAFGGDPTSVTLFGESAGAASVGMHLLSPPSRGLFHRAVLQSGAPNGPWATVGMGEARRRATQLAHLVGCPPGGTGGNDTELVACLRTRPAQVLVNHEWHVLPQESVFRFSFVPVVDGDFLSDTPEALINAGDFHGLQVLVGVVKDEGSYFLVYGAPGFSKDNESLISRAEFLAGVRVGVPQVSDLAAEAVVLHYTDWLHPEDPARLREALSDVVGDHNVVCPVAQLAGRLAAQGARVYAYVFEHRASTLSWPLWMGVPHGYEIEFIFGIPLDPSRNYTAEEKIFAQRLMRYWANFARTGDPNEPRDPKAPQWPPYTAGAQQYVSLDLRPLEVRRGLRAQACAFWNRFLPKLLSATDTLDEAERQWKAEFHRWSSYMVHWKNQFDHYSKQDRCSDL
Chain of 5-hydroxytryptamine receptor 2B (P41595 whole entry): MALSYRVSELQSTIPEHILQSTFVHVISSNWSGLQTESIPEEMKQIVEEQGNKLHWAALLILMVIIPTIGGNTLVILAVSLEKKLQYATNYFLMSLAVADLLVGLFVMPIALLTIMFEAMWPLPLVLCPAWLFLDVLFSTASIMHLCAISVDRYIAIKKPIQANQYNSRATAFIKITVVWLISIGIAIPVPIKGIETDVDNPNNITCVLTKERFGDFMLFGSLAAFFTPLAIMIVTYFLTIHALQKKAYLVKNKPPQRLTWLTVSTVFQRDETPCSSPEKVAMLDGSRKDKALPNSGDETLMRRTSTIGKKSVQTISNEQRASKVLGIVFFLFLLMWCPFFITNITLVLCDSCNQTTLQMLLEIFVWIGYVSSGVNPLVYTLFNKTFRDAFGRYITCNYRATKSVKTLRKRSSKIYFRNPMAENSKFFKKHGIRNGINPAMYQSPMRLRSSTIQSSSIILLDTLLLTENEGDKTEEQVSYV

In the case of `CCOc1cc(N)c(Cl)cc1C(=O)NCC1CN(Cc2ccc(F)cc2)CCO1` (stereo not drawn) [MOSAPRIDE], the AC50 on Acetylcholinesterase is above 30 µM; in [1], 3.01 µM; in [2], above 30 µM; on D(1A) dopamine receptor, above 30 µM; on D(3) dopamine receptor, 6.86 µM; on Prothrombin, above 30 µM. The half-maximal activity concentration (AC50) on Histamine H3 receptor is above 30 µM; in test [3], 5.18 µM; in test [4], above 30 µM; in test [5], above 30 µM; at Mu-type opioid receptor, above 30 µM; in test [6], above 30 µM. For the same compound, the concentration at half-maximal activity (AC50) (in test [7]; in test [8]; in test [9]; in test [10]; in test [11]; at Thromboxane A2 receptor [12]) was above 30 µM throughout. On Thromboxane A2 receptor [13], this compound yielded an AC50 above 30 µM.
For the compound `CN(C)c1cc(CNCC(C)(C)C)c(O)c2c1C[C@H]1C[C@H]3[C@H](N(C)C)C(O)=C(C(N)=O)C(=O)[C@@]3(O)C(O)=C1C2=O` [OMADACYCLINE], the AC50 at Acetylcholinesterase is above 10 µM; in [1], above 30 µM; in test [2], 9.2 µM; at D(1A) dopamine receptor it was above 30 µM; on D(3) dopamine receptor, above 30 µM; on Prothrombin, above 30 µM. In addition, the AC50 (on Histamine H3 receptor; in [3]; in test [4]; in test [5]; at Mu-type opioid receptor; in test [6]) was above 30 µM each time. For the same compound, the AC50 in [7] is above 30 µM; in test [8], 0.25 µM; in test [9], 0.16 µM; in [10] it was above 30 µM; in test [11] it was above 30 µM; at Thromboxane A2 receptor [12], above 30 µM. Further, the concentration at half-maximal activity (AC50) at Thromboxane A2 receptor [13] is above 10 µM.
Consider `O=C1[C@H]2CCCC[C@H]2C(=O)N1CCCCN1CCN(c2nsc3ccccc23)CC1` [PEROSPIRONE], for which the concentration at half-maximal activity (AC50) was above 30 µM at Acetylcholinesterase; 0.22 µM in test [1]; 7.34 µM in test [2]; 0.054 µM at D(1A) dopamine receptor; 0.003 µM on D(3) dopamine receptor; above 30 µM at Prothrombin. The AC50 at Histamine H3 receptor is above 30 µM; in test [3] it was 0.003 µM; in [4], above 30 µM; in test [5], 2.3 µM; at Mu-type opioid receptor it was 9.84 µM; in test [6], above 30 µM. In addition, the AC50 in [7] is above 30 µM; in [8], above 30 µM; in [9], above 30 µM; in test [10], 2.98 µM; in test [11], 3.31 µM; on Thromboxane A2 receptor [12], above 30 µM. On Thromboxane A2 receptor [13], this compound yielded a concentration at half-maximal activity (AC50) of 7.44 µM.
In the case of `CN(C)CCC(c1ccccc1)c1ccccn1` (stereo not drawn) [PHENIRAMINE], the AC50 is above 30 µM at Acetylcholinesterase; above 30 µM in [1]; 24.7 µM in test [2]; above 30 µM at D(1A) dopamine receptor; above 30 µM on D(3) dopamine receptor; above 30 µM on Prothrombin. Further, the AC50 (at Histamine H3 receptor; in test [3]; in test [4]; in test [5]; on Mu-type opioid receptor; in test [6]) was above 30 µM each time. The half-maximal activity concentration (AC50) was above 30 µM in test [7]; above 30 µM in [8]; above 30 µM in [9]; 26.3 µM in [10]; above 30 µM in test [11]; above 30 µM at Thromboxane A2 receptor [12]. The compound also registered an AC50 on Thromboxane A2 receptor [13] above 30 µM.
As for `CC(C)(C)C(=O)NCCCC(=O)O` [PIVAGABINE], the AC50 (on Acetylcholinesterase; in test [1]; in test [2]; at D(1A) dopamine receptor; on D(3) dopamine receptor; at Prothrombin) was above 30 µM throughout. Further, the AC50 (at Histamine H3 receptor; in [3]; in [4]; in test [5]; on Mu-type opioid receptor; in test [6]) was above 30 µM throughout. The AC50 (in [7]; in test [8]; in test [9]; in test [10]; in [11]; at Thromboxane A2 receptor [12]) was above 30 µM in each case. The AC50 on Thromboxane A2 receptor [13] is above 30 µM.
As to `CCCCNc1ccc(C(=O)OCCN(C)C)cc1` [TETRACAINE], the AC50 on Acetylcholinesterase is 8.1 µM; in test [1], above 30 µM; in test [2] it was above 30 µM; at D(1A) dopamine receptor, above 30 µM; on D(3) dopamine receptor it was 18.5 µM; on Prothrombin, above 30 µM. Further, the half-maximal activity concentration (AC50) was 24.2 µM at Histamine H3 receptor; above 30 µM in test [3]; above 30 µM in test [4]; 25.9 µM in [5]; above 30 µM on Mu-type opioid receptor; above 30 µM in test [6]. The AC50 in [7] is above 30 µM; in [8], above 30 µM; in test [9] it was above 30 µM; in test [10], above 30 µM; in [11], 21.9 µM; on Thromboxane A2 receptor [12], above 30 µM. The compound further yielded an AC50 on Thromboxane A2 receptor [13] above 30 µM.
As to `CN1CCN(CCCN2c3ccccc3Sc3ccc(S(=O)(=O)N(C)C)cc32)CC1` [THIOPROPERAZINE], the AC50 was 29 µM at Acetylcholinesterase; 1.42 µM in test [1]; 2.66 µM in test [2]; 0.13 µM at D(1A) dopamine receptor; 0.003 µM at D(3) dopamine receptor; above 30 µM at Prothrombin. Further, the AC50 at Histamine H3 receptor is 13.7 µM; in [3] it was 6.09 µM; in test [4] it was above 30 µM; in test [5], 0.4 µM; at Mu-type opioid receptor it was 11.6 µM; in test [6], above 30 µM. Besides, the half-maximal activity concentration (AC50) in [7] is above 30 µM; in test [8] it was above 30 µM; in test [9], 23.6 µM; in [10], 16.8 µM; in [11], 13.3 µM; at Thromboxane A2 receptor [12], above 30 µM. The compound also gave an AC50 at Thromboxane A2 receptor [13] of 9.38 µM.
